Data set [1] is described as follows: Half life in KCl/HCl buffer at pH 2.32 after 24 hrs by HPLC-MS analysis. The format is physicochemical.
Data set [2] deals with HUVEC. As to the kind of experiment: Antiangiogenic activity in HUVEC assessed as inhibition of tube like structures formation at < 100 nM after 14 hrs by matrigel based inverted microscopy. Particulars: Homo sapiens. The format is functional, cell-based.
The test system of data set [3] is NCI-H727. As to the kind of experiment: Antiproliferative activity against human NCI-H727 cells after 48 hrs by MTT assay. In kind it is functional, cell-based. Particulars: NCI-H727, 48 h. (Formazan colour is commonly taken as a measure of viable cells.)
Data set [4] relates to Huh-7. As to the kind of experiment: Antiproliferative activity against human HuH7 cells after 48 hrs by MTT assay. The format is functional, cell-based. The following applies: Huh-7, 48 h.
The test system of data set [5] is A498. The experiment in a line: Antiproliferative activity against human A498 cells after 48 hrs by MTT assay. The format is functional, cell-based. The following applies: A498, 48 h.
In data set [6] the test system is HUVEC. As to the kind of experiment: Antiangiogenic activity in HUVEC assessed as inhibition of tube like structures formation at 100 nM to 1 uM after 14 hrs by matrigel based inverted microscopy. In kind it is functional, cell-based. The following applies: Homo sapiens.
The subject of a further data set is HCT-116. As to the kind of experiment: Antiproliferative activity against human HCT116 cells after 48 hrs by MTT assay. The format is functional, cell-based. Particulars: HCT-116, 48 h.
Data set [7] deals with HUVEC. The experiment in a line: Antiangiogenic activity in HUVEC assessed as inhibition of tube like structures formation at 10 pM to 1 uM after 14 hrs by matrigel based inverted microscopy. The format is functional, cell-based. The following applies: Homo sapiens.
The subject of data set [8] is HUVEC. The experiment in a line: Antiangiogenic activity in HUVEC assessed as decrease in number of junctions at 10 pM after 14 hrs by branch point counting analysis. The following applies: Homo sapiens. The format is functional, cell-based.
The test system of data set [9] is NCI-H727. As to the kind of experiment: Downregulation of VEGFR2 in human NCI-H727 cells at 10 pM to 1 uM after 24 hrs by AlphaLISA based immuno assay. The format is functional, cell-based. For orientation: Bead proximity is the source of the signal in Alpha formats.
Data set [10] deals with NCI-H727. The experiment in a line: Inhibition of IL-6 secretion in human NCI-H727 cells at 10 pM to 1 uM after 24 hrs by AlphaLISA based immuno assay. The format is functional, cell-based.
The test system of data set [11] is HUVEC. The experiment in a line: Downregulation of VEGFR2 expression level in HUVEC at >= 10 nM after 14 hrs by immunoblot analysis. In kind it is functional, cell-based. The following applies: Homo sapiens. (In general: A western blot detects proteins with antibodies after separation by electrophoresis.)
Data set [12] deals with NCI-H727. As to the kind of experiment: Inhibition of VEGF-A secretion in human NCI-H727 cells at 10 pM to 1 uM after 24 hrs by AlphaLISA based immuno assay. The format is functional, cell-based.
In data set [13] the test system is NCI-H727. The experiment in a line: Downregulation of IGF1Rbeta in human NCI-H727 cells at 10 pM to 1 uM after 24 hrs by AlphaLISA based immuno assay. The format is functional, cell-based.
Data set [14] relates to Huh-7. The experiment in a line: Downregulation of FGFR4 in human HuH7 cells at 10 pM to 1 uM after 24 hrs by AlphaLISA based immuno assay. The format is functional, cell-based.
For data set [15], the system named is Huh-7. The experiment in a line: Inhibition of IL-6 secretion in human HuH7 cells at 10 pM to 1 uM after 24 hrs by AlphaLISA based immuno assay. In kind it is functional, cell-based.
For data set [16], the system named is Huh-7. As to the kind of experiment: Inhibition of VEGF-A secretion in human HuH7 cells at 10 pM to 1 uM after 24 hrs by AlphaLISA based immuno assay. In kind it is functional, cell-based.
Data set [17] deals with HUVEC. The experiment in a line: Antiangiogenic activity in HUVEC assessed as inhibition of tube like structures formation after 14 hrs by matrigel based inverted microscopy. The format is functional, cell-based. Particulars: Homo sapiens.
Data set [18] has as its system A498. The experiment in a line: Downregulation of MET in human A498 cells at 10 pM to 1 uM after 24 hrs by AlphaLISA based immuno assay. The format is functional, cell-based.
For data set [19], the system named is HUVEC. As to the kind of experiment: Antiangiogenic activity in HUVEC assessed as diminishing of branch points at 10 pM after 14 hrs by inverted microscopy. The format is functional, cell-based. The following applies: Homo sapiens.
The subject of data set [20] is HUVEC. As to the kind of experiment: Cytotoxicity against HUVEC assessed as decrease in cell viability after 48 hrs by MTT assay. In kind it is functional, cell-based. Particulars: Homo sapiens.
Data set [21] has as its system A498. As to the kind of experiment: Inhibition of IL-6 secretion in human A498 cells at 10 pM to 1 uM after 24 hrs by AlphaLISA based immuno assay. In kind it is functional, cell-based.
Data set [22] relates to A498. The experiment in a line: Inhibition of VEGF-A secretion in human A498 cells at 10 pM to 1 uM after 24 hrs by AlphaLISA based immuno assay. In kind it is functional, cell-based.
Data set [23] relates to A498. As to the kind of experiment: Downregulation of EGFR in human A498 cells at 10 pM to 1 uM after 24 hrs by AlphaLISA based immuno assay. In kind it is functional, cell-based.

Active and inactive are the calls of the source. No cut-off for these calls is given here.

Regarding `CC[C@H](C)[C@H]1C(=O)N2CCC[C@H]2C(=O)O[C@H](C(C)(C)C)C[C@@H](C)C[C@@H](O)[C@H](C)C2=N[C@@H](CCC(=O)N[C@@H](Cc3ccc(OC)cc3)C(=O)N(C)[C@@H](C)C(=O)N1C)CS2`, the half-life in [1] is > 24 h.

Regarding `CCN(CC)CCNC(=O)c1c(C)[nH]c(/C=C2\C(=O)Nc3ccc(F)cc32)c1C` [SUNITINIB], in the data set with HUVEC [2], the inhibition result is “inactive”. Besides, the values for the IC50 in the data set with NCI-H727 [3], in the data set on Huh-7 [4] and with A498 [5] were 10.1 µM, 4.71 µM and 7.98 µM, respectively. Also, the inhibition result in the data set on HUVEC [6] is “Active”.

As to `CC[C@H](C)[C@H]1C(=O)N2CCC[C@H]2C(=O)O[C@H](C(C)(C)C)C[C@@H](C)C[C@@H](O)C(C)(C)C2=N[C@H](CCC(=O)N[C@@H](Cc3ccc(OC)cc3)C(=O)N(C)[C@@H](C)C(=O)N1C)CS2`, the IC50 in the data set with NCI-H727 [3] was determined as 0.00255 µM; in the data set with Huh-7 [4] it was 0.00083 µM; with HCT-116, 0.00147 µM; with A498 [5], 0.00335 µM. Further, the half-life in data set [1] was > 24 h.

For the compound `CC[C@H](C)[C@H]1C(=O)N2CCC[C@H]2C(=O)O[C@H](C(C)(C)C)C[C@@H](C)C[C@@H](O)C(C)(C)C2=N[C@@H](CCC(=O)N[C@@H](Cc3ccc(OC)cc3)C(=O)N(C)[C@@H](C)C(=O)N1C)CS2`, the half-life in data set [1] is > 24 h. In addition, half-maximal inhibition with HCT-116 (IC50) required 0.00199 µM.

Turning to `COc1cc2nccc(Oc3ccc(NC(=O)C4(C(=O)Nc5ccc(F)cc5)CC4)cc3)c2cc1OC` [CABOZANTINIB], the inhibition result in the data set on HUVEC [7] was “inactive”. Besides, the IC50 in the data set on NCI-H727 [3] was 14 µM; with Huh-7 [4] it was 4.35 µM; with A498 [5] it was 8.46 µM.

Turning to `CC[C@H](C)[C@H]1C(=O)N2CCC[C@H]2C(=O)O[C@H](C(C)(C)C)C[C@@H](C)C[C@@H](O)[C@H](C)C2=N[C@H](CCC(=O)N[C@@H](Cc3ccc(OC)cc3)C(=O)N(C)[C@@H](C)C(=O)N1C)CS2`, in data set [1], the half-life is > 24 h.

In the case of `C#Cc1cccc(Nc2ncnc3cc(OCCOC)c(OCCOC)cc23)c1` [ERLOTINIB], the inhibition result in the data set with HUVEC [7] is “inactive”. In addition, the IC50 in the data set on NCI-H727 [3] is > 6.24 µM; in the data set on Huh-7 [4] it was 25 µM; in the data set with A498 [5], 12.5 µM.

As for `CC[C@H](C)[C@@H]1C(=O)N2CCC[C@@H]2C(=O)O[C@H](C(C)(C)C)C[C@@H](C)C[C@@H](O)C(C)(C)C2=N[C@H](CCC(=O)N[C@@H](Cc3ccc(OC)cc3)C(=O)N(C)[C@@H](C)C(=O)N1C)CS2`, the result with HUVEC [8], in the data set on NCI-H727 [9], with HUVEC [11], in the data set on NCI-H727 [13], in the data set with Huh-7 [14] and with A498 [18] was Active. Also, the result in the data set on HUVEC [19], with HUVEC [20] and with A498 [23] was Active. The inhibition result with NCI-H727 [10], with NCI-H727 [12], in the data set with Huh-7 [15], in the data set with Huh-7 [16], with A498 [21] and with A498 [22] was “Active” each time. Also, the inhibition result in the data set with HUVEC [17] was “Dose-dependent effect”.

A word on the half-life: it is the time in which the quantity being followed falls by half. In general, IC50 refers to the concentration at which inhibition is half-maximal. Lower therefore signals greater potency in that assay.

These data come from ChEMBL document CHEMBL4130518, “Apratoxin S10, a Dual Inhibitor of Angiogenesis and Cancer Cell Growth To Treat Highly Vascularized Tumors” (ACS Med Chem Lett, 2017).
